Reference: patent US20050107455A1, “Novel tricycloimidazoline derivatives method for production and use thereof as medicaments” (priority 2002, published 2005)
Counter-ions that a name gives are not always drawn.

Tests used:
[1] = system: Scopolamine-induced memory deficiency; assay: Test of scopolamine-induced memory deficiency (passive avoidance); format: in vivo; conditions: rats
Description: Test of Scopolamine-Induced Memory Deficiency:
Scopolamine has amnesiant properties in man and animals. Thus, its administration to a healthy person causes certain symptoms similar to what is observed in Alzheimer's disease. Scopolamine-induced memory deficiency is thus used as an experimental pharmacological model of this pathology. Scopolamine reduces the capacity for acquisition, memorization and recall in a test of passive avoidance in rats. […] The administration of scopolamine suppresses this reticence, and the test compounds counter the effect of scopolamine. The experimental protocol used is described in Psychopharmacol. 1992, 106, 26-30.

[2] = target: T1, human alpha-2A receptor (Homo sapiens, UniProt P08913); assay: Binding to the adrenergic alpha-2A receptor, [3H]RX 821002, C6 cell membranes; conditions: membranes of C6 cells expressing human alpha-2A; 2 nM [3H]RX 821002; 30 minutes at 25° C.; read-out: Affinity (pKi) Alpha-2A (converted)
T1 construct: expressed in transfected cells; host or cells: C6 cells (permanent expression), membranes
T1 sequence (P08913 1-465): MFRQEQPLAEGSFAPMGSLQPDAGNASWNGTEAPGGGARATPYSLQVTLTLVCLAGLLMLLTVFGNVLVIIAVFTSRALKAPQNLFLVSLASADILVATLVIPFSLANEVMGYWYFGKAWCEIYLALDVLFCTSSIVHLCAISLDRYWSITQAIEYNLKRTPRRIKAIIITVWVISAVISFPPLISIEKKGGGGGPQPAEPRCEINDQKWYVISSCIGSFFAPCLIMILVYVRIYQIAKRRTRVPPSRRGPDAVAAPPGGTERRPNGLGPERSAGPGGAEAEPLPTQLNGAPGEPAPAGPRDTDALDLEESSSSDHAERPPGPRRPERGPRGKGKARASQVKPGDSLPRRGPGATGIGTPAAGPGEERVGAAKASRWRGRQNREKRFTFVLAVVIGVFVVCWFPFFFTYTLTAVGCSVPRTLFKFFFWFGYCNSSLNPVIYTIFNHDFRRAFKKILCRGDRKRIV
Method: (§1) Membranes of C6 cells permanently expressing either the human alpha-2A or alpha-2B receptor are prepared in Tris-HCl (pH=7.6). The binding tests are performed with 2 nM [^3H]RX 821002. The incubation medium is composed of 0.4 ml of cell membranes (10 μg of proteins), 0.05 ml of radioligand and 0.05 ml of test product or of phentolamine (10 μM) to determine the nonspecific binding. The reaction is quenched after incubation for 30 minutes at 25° C. by adding 3 ml of cold 50 mM Tris-HCl (pH=7.6), followed by filtration through Whatman GF/B filters using a Brandel. The Ki values are calculated according to the equation Ki=IC50/(1+C/Kd) in which C is the concentration and Kd the dissociation constant, pKi=−logKi. Under these conditions, it is seen that the compounds of the invention have high affinity for the receptors of the human adrenergic alpha-2A subtype, whereas they have little or no affinity for the receptors of the human adrenergic alpha-2B subtype (cf. above table). This unexpected receptor selectivity of the compounds of the invention, compared with the compounds of the prior art, may have a favorable impact on their tolerance.

[3] = target: T2, human alpha-2B receptor (Homo sapiens, UniProt P18089); assay: Binding to the adrenergic alpha-2B receptor, [3H]RX 821002, C6 cell membranes; conditions: membranes of C6 cells expressing human alpha-2B; 2 nM [3H]RX 821002; 30 minutes at 25° C.; read-out: Affinity (pKi) Alpha-2B (converted)
T2 construct: expressed in transfected cells; host or cells: C6 cells (permanent expression), membranes
T2 sequence (P18089 1-450): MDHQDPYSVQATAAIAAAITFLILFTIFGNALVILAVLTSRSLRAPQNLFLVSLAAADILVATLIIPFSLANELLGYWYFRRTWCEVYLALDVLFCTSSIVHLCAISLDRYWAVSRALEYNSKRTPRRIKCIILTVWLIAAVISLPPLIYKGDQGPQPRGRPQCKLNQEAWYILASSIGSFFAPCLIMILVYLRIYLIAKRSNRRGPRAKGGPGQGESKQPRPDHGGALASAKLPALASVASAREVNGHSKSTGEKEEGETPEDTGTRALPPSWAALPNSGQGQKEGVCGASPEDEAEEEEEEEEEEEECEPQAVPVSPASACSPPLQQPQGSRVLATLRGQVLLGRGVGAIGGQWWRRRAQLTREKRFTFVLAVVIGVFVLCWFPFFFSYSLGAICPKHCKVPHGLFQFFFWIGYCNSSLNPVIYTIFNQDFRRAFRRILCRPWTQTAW
Method: as §1

[4] = target: T3, human alpha-2A adrenergic receptors (Homo sapiens, UniProt P08913); assay: Measurement of the activation of the adrenergic alpha-2 receptors (GTPγS response on membrane preparations); format: biochemical; conditions: GTPγS response versus maximum stimulation by (−)-adrenalin, negative = inverse agonist, read-out: Intrinsic activity % stimulated
T3 construct: host or cells: membrane preparations
T3 sequence (P08913 1-465): T1 sequence (P08913 1-465)
Method: Measurement of the Activation of the Adrenergic Alpha-2 Receptors:
The responses as GTPγS are performed on membrane preparations in 20 mM HEPES (pH=7.4) with 30 μM of GDP, 100 mM of NaCl, 3 mM of MgCl2 and 0.2 mM of ascorbic acid. The maximum stimulation of the GTPγS is determined in the presence of […] of (−)-adrenalin and calculated versus the basal GTPγS response. The results are expressed versus either adrenalin or RX 81105-9. Under these conditions, the compounds of the invention are distinguished from most of the compounds of the prior art of the 4,5-dihydro-1H-imidazole and/or 1H-imidazole type in that they behave rather as inverse agonists on human alpha-2A adrenergic receptors (cf. above table).

SMILES | melting point [°C] | Ki [2] [nM] | Ki [3] [nM] | Emax [4] [%] | further results
CO[C@H]1c2ccccc2C2C[C@]21C1=NCCN1 (mixture of isomers) (as salt: fumarate) [XV-1, 2-(6-Methoxy-1a,6-dihydro-1H-cyclopropa[a]-inden-6a-yl)-4,5-dihydro-1H-imidazole] | 173 to 175 | – | – | – | –
C[C@@H]1[C@H]2c3ccccc3C[C@@]12C1=NCCN1 (racemic) (as salt: fumarate) [XVII-2, 2-(1-exo-Methyl-1a,6-dihydro-1H-cyclopropa-[a]inden-6a-yl)-4,5-dihydro-1H-imidazole] | 133 to 135 | – | – | – | –
CO[C@H]1c2ccccc2C2C[C@]21C1=NCCN1 (mixture of isomers) [XV-1, 2-(6-Methoxy-1a,6-dihydro-1H-cyclopropa[a]-inden-6a-yl)-4,5-dihydro-1H-imidazole] | – | 12.6 | 316 | -2 | Scopolamine-induced memory deficiency amplitude of the effect % ([1]; dose 2.5 mg/kg i.p.): +168 (2.5) %
C[C@@H]1[C@H]2c3ccccc3C[C@@]12C1=NCCN1 (racemic) [XVII-2, 2-(1-exo-Methyl-1a,6-dihydro-1H-cyclopropa-[a]inden-6a-yl)-4,5-dihydro-1H-imidazole] | – | 3.16 | 20 | -64 | Scopolamine-induced memory deficiency amplitude of the effect % ([1]; dose 0.63 mg/kg i.p.): +181 (0.63) %
COC1c2ccccc2C2CC21C1=NCCN1 (single isomer, unassigned; (+)) (as salt: fumarate) [(+) -XV-1, (+)-2-(6-Methoxy-1a,6-dihydro-1H-cyclopropa[a]inden-6a-yl)-4,5-dihydro-1H-imidazole] | 170 to 172 | – | – | – | –
COC1c2ccccc2C2CC21C1=NCCN1 (single isomer, unassigned; (+)) [(+) -XV-1, (+)-2-(6-Methoxy-1a,6-dihydro-1H-cyclopropa[a]inden-6a-yl)-4,5-dihydro-1H-imidazole] | – | 3.98 | > 10000 | -63 | –
c1ccc2c(c1)CC1(C3=NCCN3)CC21 (single isomer, unassigned; (-)) (as salt: hydrochloride) [(−)-XVII-1, (−)-2-(1a,6-Dihydro-1H-cyclopropa[a]inden-6a-yl)-4,5-dihydro-1H-imidazole] | 245 to 247 | – | – | – | –
CNCC(O)c1ccc(O)c(O)c1 (single isomer, unassigned; (-)) [(−)-adrenalin, reference compound] | – | – | – | 100 | –
COc1cccc2c1C1C[C@@]1(C1=NCCN1)[C@H]2OC (stereo in doubt) (as salt: fumarate) [XV-1a, 2-(2,6-Dimethoxy-1a,6-dihydro-1H-cyclopropa[a]inden-6a-yl)-4,5-dihydro-1H-imidazole] | 177 to 179 | – | – | – | –
COc1cc2c(cc1OC)C(=O)C(CC1CCN(Cc3ccccc3)CC1)C2 (stereo not drawn) [donepezil, reference compound] | – | – | – | – | Scopolamine-induced memory deficiency amplitude of the effect % ([1]; dose 0.16 mg/kg i.p.): +67 (0.16) %
